Measurements published in US20220280594A1, “APPLICATION OF POLYPEPTIDE OR DERIVATIVE THEREOF” (CHENGDU HUITAI BIOMEDICINE CO., LTD., priority 2019, published 2022).
Ends that are not written are not given here. PEG = not defined here

Assays:
[1] = system: human non-small cell lung cancer cells (A549); assay: scratch assay, migration of A549 cells; type: cell-based; conditions: A549, 10 μM, 48 hours; control group 75.31 ± 8.19
Procedure: (§1) In the scratch assay, the cell migration rate was negatively correlated with the inhibitory effect of the drug component on tumor cell migration ability. The cell migration inhibition experiment was described as follows: tumor cells were cultured in vitro, cells in logarithmic growth phase were collected and seeded evenly in a 24-well plate at a density of 1-2×10^5 cells/well; the cells were cultured in a cell incubator until a monolayer was formed; a scratch tool was used to make a “-” (straight) scratch on the monolayer of cells; the cells were washed 1-3 times with PBS, and a medium (with 2% fetal bovine serum) containing specific test components was added to the culture. Experimental grouping: PBS control group; polypeptide or derivative thereof treatment group (N1-N54), 10 μM. Three independent parallel wells were set up in each group, and the cells were cultured continuously in a cell incubator for 48 hours. […] At least 3 representative images for each well were taken. ImageJ software was used to count the migration distance of the cells, and the cell migration rate was calculated as: cell migration rate (%)=(width of original scratch−width of current scratch)/width of original scratch×100.
This example was a scratch assay to evaluate the inhibitory effect of the polypeptide or derivative thereof (N1-N54) on the migration ability of human non-small cell lung cancer (A549). The experimental method was as described in Example 2.

[2] = system: human lung cancer cells (A549) subcutaneous xenograft; assay: lung cancer subcutaneous xenograft animal model, intravenous injection; type: in vivo, mice (BALB/c-nu/nu); conditions: intravenous 60 mg/kg once every other day, 20 days; for Weight of tumor (g) (mean ± SD): control 2.53 ± 0.17; for Volume of tumor (mm^3) (mean ± SD): control 3373.26 ± 581.44
Procedure: Experimental animals: 4-6 weeks old female immunodeficiency mice (BALB/c-nu/nu, Beijing Vital River Laboratory Animal Technology Co., Ltd.).
Subcutaneous xenograft animal model. The number of cells inoculated subcutaneously vin mice was about 2×10^6/200 μL. When the volume of the subcutaneous tumor was greater than 100 mm^3, the mice were randomly divided into groups and subjected to treatment. When the mass volume of the tumors in model control group reached 2000 mm^3 or the animal dies, the treatment ended. The animals were dissected, the tumors were taken out, and the weight and volume of the tumors were measured. During the period of the entire experiment, the mice were observed and the body weight was measured every other day.
The method used in the efficacy test on the lung cancer subcutaneous xenograft animal model was as described in Example 5. The lung cancer cells were the human lung cancer cells (A549), and the route of administration was intravenous injection. This example involved a total of 3 experiments to evaluate N1-N15, N16-N30, and N31-N54 respectively. The experimental procedure, route of administration, dosage and frequency of administration, and detection method were all consistent in the three experiments. The experimental groups were model control group and polypeptide or derivative thereof treatment groups (N1-N15, N16-N30, or N31-N54). The drug dosage of the N1-N54 treatment groups was 60 mg/kg, and the treatment time was 20 days.

[3] = system: human pancreatic cancer cells (PANC-1); assay: transwell migration assay, PANC-1 cells; type: cell-based; conditions: PANC-1 transwell migration, 10 μM, 24 hours; control group 360 ± 60
Procedure: The Transwell chamber system was used in the transwell cell migration experiment. The chamber has an upper layer and a lower layer, which are separated by an artificial semipermeable membrane in the middle. Cells that have migrated through the semi-permeable membrane will attach to the lower surface of the semi-permeable membrane. The migration ability is evaluated by counting the number of cells on the lower surface of the semi-permeable membrane. The number of cells that have migrated is negatively correlated with the inhibitory effect of the drug on the migration ability of the tumor cells. Transwell migration assay was performed as follows: tumor cells were cultured in vitro, cells in logarithmic growth phase were collected, and cell suspension was prepared with fresh serum-free medium at a density of 2-3×10^5 cells/mL. Cells were inoculated, 100 μL/well cell suspension (serum-free medium) in the upper chamber and 600 μL/well complete culture medium in the lower chamber. After incubated in 37° C., 5% CO2 incubator for 4-5 hours, serum-free medium (100 μL/well) was added to the control group, and serum-free medium containing polypeptide or derivative thereof (N1-N54) was added to the upper chamber of the treatment group (100 μL/well), the final concentration of the peptide or derivative thereof in the upper chamber was 10 μM. The cells were incubated continuously for 24 hours, and then fixed with methanol and stained with crystal violet. Images were taken under a microscope and the number of migrated cells was counted with ImageJ.
This example was a transwell cell migration experiment to evaluate the inhibitory effect of the polypeptide or derivative thereof (N1-N54) on the migration ability of human pancreatic cancer cells (PANC-1). The experimental method was as described in Example 3.

[4] = system: human liver cancer cells (HepG2); assay: scratch assay, migration of HepG2 cells; type: cell-based; conditions: HepG2, 10 μM, 48 hours; control group 71.01 ± 6.63
Procedure: as §1
This example was a scratch assay to evaluate the inhibitory effect of the polypeptide or derivative thereof (N1-N54) on the migration ability of human liver cancer cells (HepG2). The experimental method was as described in Example 2.

[5] = system: human breast cancer cells (MDA-MB-453); assay: scratch assay, migration of MDA-MB-453 cells; type: cell-based; conditions: MDA-MB-453, 10 μM, 48 hours; control group 32.42 ± 2.04
Procedure: as §1
This example was a scratch assay to evaluate the inhibitory effect of the polypeptide or derivative thereof (N1-N54) on the migration ability of human breast cancer cells (MDA-MB-453). The experimental method was as described in Example 2.

[6] = system: human breast cancer cells (MDA-MB-231); assay: scratch assay, migration of MDA-MB-231 cells; type: cell-based; conditions: MDA-MB-231, 10 μM, 48 hours; control group 36.19 ± 5.15
Procedure: as §1
This example was a scratch assay to evaluate the inhibitory effect of the polypeptide or derivative thereof (N1-N54) on the migration ability of human breast cancer cells (MDA-MB-231). The experimental method was as described in Example 2.

[7] = system: human breast cancer cells (MCF-7); assay: scratch assay, migration of MCF-7 cells; type: cell-based; conditions: MCF-7, 10 μM, 48 hours; control group 30.97 ± 1.79
Procedure: as §1
This example was a scratch assay to evaluate the inhibitory effect of the polypeptide or derivative thereof (N1-N54) on the migration ability of human breast cancer cells (MCF-7). The experimental method was as described in Example 2.

[8] = system: human colon cancer cells (HCT-116); assay: scratch assay, migration of HCT-116 cells; type: cell-based; conditions: HCT-116, 10 μM, 48 hours; control group 47.78 ± 6.07
Procedure: as §1
This example was a scratch assay to evaluate the inhibitory effect of the polypeptide or derivative thereof (N1-N54) on the migration ability of human colon cancer cells (HCT-116). The experimental method was as described in Example 2.

[9] = system: human prostate cancer cells (22RV1); assay: scratch assay, migration of 22RV1 cells; type: cell-based; conditions: 22RV1, 10 μM, 48 hours; control group 25.41 ± 5.01
Procedure: as §1
This example was a scratch assay to evaluate the inhibitory effect of the polypeptide or derivative thereof (N1-N54) on the migration ability of human prostate cancer cells (22RV1). The experimental method was as described in Example 2.

Substance	Migration rate (%) (mean ± SD, P) [1]	Weight of tumor (g) (mean ± SD) [2]	Volume of tumor (mm^3) (mean ± SD) [2]	Number of cells (mean ± SD, P), migrated cells [3]	Migration rate (%) (mean ± SD, P) [4]	Migration rate (%) (mean ± SD, P) [5]	Migration rate (%) (mean ± SD, P) [6]	Migration rate (%) (mean ± SD, P) [7]	Migration rate (%) (mean ± SD, P) [8]	Migration rate (%) (mean ± SD, P) [9]
N3: SEQ ID NO: 1 with deletion of position 18 and PEG modification at the amino terminal ({PEG}-YRVRFLAKENVTQDAED; reading uncertain)	51.86 ± 2.15,** %	0.56 ± 0.16	1511.56 ± 433.12	224 ± 28,**	17.57 ± 6.98,*** %	13.04 ± 3.5,** %	21.98 ± 2.74,* %	10.39 ± 2.07,** %	22.06 ± 4.59,** %	6.15 ± 4.65,** %
N18: SEQ ID NO: 1 with addition of one amino acid at the amino terminal and one at the carboxyl terminal (FYRVRFLAKENVTQDAEDNC)	55.71 ± 4.05,* %	1.3 ± 0.24	1161.51 ± 297.07	232 ± 24,*	48.73 ± 3.52,** %	9.97 ± 2.44,*** %	18.64 ± 6.98,* %	10.40 ± 2.72,** %	16.96 ± 4.87,** %	6.75 ± 3.22,** %
N35: SEQ ID NO: 1 with A15R, addition of one amino acid and PEG modification at the carboxyl terminal (YRVRFLAKENVTQDREDNC-{PEG}; reading uncertain)	32.27 ± 9.53,** %	0.75 ± 0.24	1097.54 ± 216.63	151 ± 10,***	16.83 ± 7.92,*** %	8.46 ± 2.77,*** %	18.12 ± 5.23,* %	17.38 ± 2.55,* %	9.08 ± 2.64,*** %	7.13 ± 2.23,** %
N4: SEQ ID NO: 1 with deletion of positions 15-18 and positions 1-3 (RFLAKENVTQD)	51.53 ± 3.72,* %	0.56 ± 0.19	1515.07 ± 507.99	268 ± 20,*	25.37 ± 6.11,*** %	15.74 ± 4.83,* %	21.44 ± 2.59,* %	13.6 ± 2.28,** %	25.48 ± 2.79,** %	13.44 ± 3.24,* %
N30: SEQ ID NO: 1 with deletion of positions 1-5 and 15-18 and PEG modification at the carboxyl terminal (LAKENVTQD-{PEG}; reading uncertain)	24.57 ± 3.19,*** %	1.01 ± 0.34	1187.13 ± 246.31	243 ± 33,*	16.60 ± 7.85,*** %	15.77 ± 2.33,*** %	9.02 ± 2.02,*** %	14.34 ± 4.06,* %	12.41 ± 2.99,*** %	10.82 ± 2.55,* %
N16: SEQ ID NO: 1 with substitution A7R and addition of one amino acid at the carboxyl terminus (YRVRFLRKENVTQDAEDNC)	30.57 ± 5.41,** %	1.05 ± 0.26	1442.4 ± 293.63	230 ± 28,*	43.25 ± 5.18,** %	8.11 ± 1.71,*** %	14.99 ± 6.11,* %	9.81 ± 3.29,** %	9.39 ± 2.06,*** %	9.75 ± 2.14,** %
N21: SEQ ID NO: 1 with deletion of positions 1-5 and 15-18 and addition of one amino acid at the amino terminal (SLAKENVTQD)	31.06 ± 4.94,** %	0.71 ± 0.22	1065.78 ± 432.05	216 ± 12,***	15.00 ± 7.29,*** %	13.59 ± 2.07,** %	19.95 ± 5.47,* %	10.43 ± 2.18,** %	12.85 ± 3.12,*** %	12.79 ± 3.06,* %
